Source: BigSolDB 2.1

c1ccc(-c2nnn[nH]2)cc1
solubility (mole fraction) (in 1,4-dioxane, 283.15 K): 0.00929 | solubility (mole fraction) (in 1,4-dioxane, 285.65 K): 0.00982 | solubility (mole fraction) (in 1,4-dioxane, 288.15 K): 0.0104 | solubility (mole fraction) (in 1,4-dioxane, 290.65 K): 0.0109 | solubility (mole fraction) (in 1,4-dioxane, 293.15 K): 0.0114 | solubility (mole fraction) (in 1,4-dioxane, 295.65 K): 0.012 | solubility (mole fraction) (in 1,4-dioxane, 298.15 K): 0.0125 | solubility (mole fraction) (in 1,4-dioxane, 300.65 K): 0.0131 | solubility (mole fraction) (in 1,4-dioxane, 303.15 K): 0.0138 | solubility (mole fraction) (in 1,4-dioxane, 305.65 K): 0.0145 | solubility (mole fraction) (in 1,4-dioxane, 308.15 K): 0.0151 | solubility (mole fraction) (in 1,4-dioxane, 310.65 K): 0.0158 | solubility (mole fraction) (in 1,4-dioxane, 313.15 K): 0.0165 | solubility (mole fraction) (in 1,4-dioxane, 315.65 K): 0.0172 | solubility (mole fraction) (in 1,4-dioxane, 318.15 K): 0.018 | solubility (mole fraction) (in 2-butanone, 283.15 K): 0.0156 | solubility (mole fraction) (in 2-butanone, 285.65 K): 0.0163 | solubility (mole fraction) (in 2-butanone, 288.15 K): 0.017 | solubility (mole fraction) (in 2-butanone, 290.65 K): 0.0178 | solubility (mole fraction) (in 2-butanone, 293.15 K): 0.0185 | solubility (mole fraction) (in 2-butanone, 295.65 K): 0.0193 | solubility (mole fraction) (in 2-butanone, 298.15 K): 0.0202 | solubility (mole fraction) (in 2-butanone, 300.65 K): 0.0211 | solubility (mole fraction) (in 2-butanone, 303.15 K): 0.022 | solubility (mole fraction) (in 2-butanone, 305.65 K): 0.023 | solubility (mole fraction) (in 2-butanone, 308.15 K): 0.0239 | solubility (mole fraction) (in 2-butanone, 310.65 K): 0.0249 | solubility (mole fraction) (in 2-butanone, 313.15 K): 0.026 | solubility (mole fraction) (in 2-butanone, 315.65 K): 0.0271 | solubility (mole fraction) (in 2-butanone, 318.15 K): 0.0281 | solubility (mole fraction) (in DMF, 283.15 K): 0.208 | solubility (mole fraction) (in DMF, 285.65 K): 0.22 | solubility (mole fraction) (in DMF, 288.15 K): 0.231 | solubility (mole fraction) (in DMF, 290.65 K): 0.244 | solubility (mole fraction) (in DMF, 293.15 K): 0.257 | solubility (mole fraction) (in DMF, 295.65 K): 0.269 | solubility (mole fraction) (in DMF, 298.15 K): 0.282 | solubility (mole fraction) (in DMF, 300.65 K): 0.296 | solubility (mole fraction) (in DMF, 303.15 K): 0.308 | solubility (mole fraction) (in DMF, 305.65 K): 0.322 | solubility (mole fraction) (in DMF, 308.15 K): 0.336 | solubility (mole fraction) (in DMF, 310.65 K): 0.35 | solubility (mole fraction) (in DMF, 313.15 K): 0.365 | solubility (mole fraction) (in DMF, 315.65 K): 0.379 | solubility (mole fraction) (in DMF, 318.15 K): 0.393 | solubility (mole fraction) (in DMSO, 293.15 K): 0.278 | solubility (mole fraction) (in DMSO, 295.65 K): 0.291 | solubility (mole fraction) (in DMSO, 298.15 K): 0.304 | solubility (mole fraction) (in DMSO, 300.65 K): 0.317 | solubility (mole fraction) (in DMSO, 303.15 K): 0.33 | solubility (mole fraction) (in DMSO, 305.65 K): 0.343 | solubility (mole fraction) (in DMSO, 308.15 K): 0.356 | solubility (mole fraction) (in DMSO, 310.65 K): 0.369 | solubility (mole fraction) (in DMSO, 313.15 K): 0.384 | solubility (mole fraction) (in DMSO, 315.65 K): 0.398 | solubility (mole fraction) (in DMSO, 318.15 K): 0.412 | solubility (mole fraction) (in acetone, 283.15 K): 0.0169 | solubility (mole fraction) (in acetone, 285.65 K): 0.0176 | solubility (mole fraction) (in acetone, 288.15 K): 0.0184 | solubility (mole fraction) (in acetone, 290.65 K): 0.0192 | solubility (mole fraction) (in acetone, 293.15 K): 0.02 | solubility (mole fraction) (in acetone, 295.65 K): 0.0208 | solubility (mole fraction) (in acetone, 298.15 K): 0.0217 | solubility (mole fraction) (in acetone, 300.65 K): 0.0226 | solubility (mole fraction) (in acetone, 303.15 K): 0.0236 | solubility (mole fraction) (in acetone, 305.65 K): 0.0245 | solubility (mole fraction) (in acetone, 308.15 K): 0.0256 | solubility (mole fraction) (in acetone, 310.65 K): 0.0266 | solubility (mole fraction) (in acetone, 313.15 K): 0.0278 | solubility (mole fraction) (in acetone, 315.65 K): 0.029 | solubility (mole fraction) (in acetone, 318.15 K): 0.0302 | solubility (mole fraction) (in acetonitrile, 283.15 K): 0.00181 | solubility (mole fraction) (in acetonitrile, 285.65 K): 0.00197 | solubility (mole fraction) (in acetonitrile, 288.15 K): 0.00216 | solubility (mole fraction) (in acetonitrile, 290.65 K): 0.00236 | solubility (mole fraction) (in acetonitrile, 293.15 K): 0.00253 | solubility (mole fraction) (in acetonitrile, 295.65 K): 0.0028 | solubility (mole fraction) (in acetonitrile, 298.15 K): 0.00307 | solubility (mole fraction) (in acetonitrile, 300.65 K): 0.00331 | solubility (mole fraction) (in acetonitrile, 303.15 K): 0.00359 | solubility (mole fraction) (in acetonitrile, 305.65 K): 0.00389 | solubility (mole fraction) (in acetonitrile, 308.15 K): 0.00421 | solubility (mole fraction) (in acetonitrile, 310.65 K): 0.00449 | solubility (mole fraction) (in acetonitrile, 313.15 K): 0.0049 | solubility (mole fraction) (in acetonitrile, 315.65 K): 0.0052 | solubility (mole fraction) (in acetonitrile, 318.15 K): 0.00555 | solubility (mole fraction) (in cyclohexane, 283.15 K): 3.56e-06 | solubility (mole fraction) (in cyclohexane, 285.65 K): 3.93e-06 | solubility (mole fraction) (in cyclohexane, 288.15 K): 4.34e-06 | solubility (mole fraction) (in cyclohexane, 290.65 K): 4.54e-06 | solubility (mole fraction) (in cyclohexane, 293.15 K): 5.04e-06 | solubility (mole fraction) (in cyclohexane, 295.65 K): 5.38e-06 | solubility (mole fraction) (in cyclohexane, 298.15 K): 5.97e-06 | solubility (mole fraction) (in cyclohexane, 300.65 K): 6.41e-06 | solubility (mole fraction) (in cyclohexane, 303.15 K): 6.91e-06 | solubility (mole fraction) (in cyclohexane, 305.65 K): 7.5e-06 | solubility (mole fraction) (in cyclohexane, 308.15 K): 8.16e-06 | solubility (mole fraction) (in cyclohexane, 310.65 K): 8.97e-06 | solubility (mole fraction) (in cyclohexane, 313.15 K): 9.6e-06 | solubility (mole fraction) (in cyclohexane, 315.65 K): 1.04e-05 | solubility (mole fraction) (in cyclohexane, 318.15 K): 1.11e-05 | solubility (mole fraction) (in ethanol, 283.15 K): 0.0148 | solubility (mole fraction) (in ethanol, 285.65 K): 0.0156 | solubility (mole fraction) (in ethanol, 288.15 K): 0.0164 | solubility (mole fraction) (in ethanol, 290.65 K): 0.0172 | solubility (mole fraction) (in ethanol, 293.15 K): 0.0181 | solubility (mole fraction) (in ethanol, 295.65 K): 0.019 | solubility (mole fraction) (in ethanol, 298.15 K): 0.02 | solubility (mole fraction) (in ethanol, 300.65 K): 0.0209 | solubility (mole fraction) (in ethanol, 303.15 K): 0.022 | solubility (mole fraction) (in ethanol, 305.65 K): 0.023 | solubility (mole fraction) (in ethanol, 308.15 K): 0.0241 | solubility (mole fraction) (in ethanol, 310.65 K): 0.0253 | solubility (mole fraction) (in ethanol, 313.15 K): 0.0264 | solubility (mole fraction) (in ethanol, 315.65 K): 0.0277 | solubility (mole fraction) (in ethanol, 318.15 K): 0.0289 | solubility (mole fraction) (in ethyl acetate, 283.15 K): 0.00628 | solubility (mole fraction) (in ethyl acetate, 285.65 K): 0.00648 | solubility (mole fraction) (in ethyl acetate, 288.15 K): 0.00665 | solubility (mole fraction) (in ethyl acetate, 290.65 K): 0.00691 | solubility (mole fraction) (in ethyl acetate, 293.15 K): 0.00717 | solubility (mole fraction) (in ethyl acetate, 295.65 K): 0.00746 | solubility (mole fraction) (in ethyl acetate, 298.15 K): 0.00773 | solubility (mole fraction) (in ethyl acetate, 300.65 K): 0.00804 | solubility (mole fraction) (in ethyl acetate, 303.15 K): 0.00838 | solubility (mole fraction) (in ethyl acetate, 305.65 K): 0.00878 | solubility (mole fraction) (in ethyl acetate, 308.15 K): 0.00918 | solubility (mole fraction) (in ethyl acetate, 310.65 K): 0.00961 | solubility (mole fraction) (in ethyl acetate, 313.15 K): 0.0101 | solubility (mole fraction) (in ethyl acetate, 315.65 K): 0.0106 | solubility (mole fraction) (in ethyl acetate, 318.15 K): 0.0111 | solubility (mole fraction) (in isopropanol, 283.15 K): 0.0141 | solubility (mole fraction) (in isopropanol, 285.65 K): 0.0147 | solubility (mole fraction) (in isopropanol, 288.15 K): 0.0155 | solubility (mole fraction) (in isopropanol, 290.65 K): 0.0163 | solubility (mole fraction) (in isopropanol, 293.15 K): 0.0171 | solubility (mole fraction) (in isopropanol, 295.65 K): 0.0179 | solubility (mole fraction) (in isopropanol, 298.15 K): 0.0189 | solubility (mole fraction) (in isopropanol, 300.65 K): 0.0198 | solubility (mole fraction) (in isopropanol, 303.15 K): 0.0208 | solubility (mole fraction) (in isopropanol, 305.65 K): 0.0217 | solubility (mole fraction) (in isopropanol, 308.15 K): 0.0227 | solubility (mole fraction) (in isopropanol, 310.65 K): 0.0237 | solubility (mole fraction) (in isopropanol, 313.15 K): 0.0248 | solubility (mole fraction) (in isopropanol, 315.65 K): 0.0257 | solubility (mole fraction) (in isopropanol, 318.15 K): 0.0268 | solubility (mole fraction) (in methanol, 283.15 K): 0.0156 | solubility (mole fraction) (in methanol, 285.65 K): 0.0164 | solubility (mole fraction) (in methanol, 288.15 K): 0.0172 | solubility (mole fraction) (in methanol, 290.65 K): 0.018 | solubility (mole fraction) (in methanol, 293.15 K): 0.0189 | solubility (mole fraction) (in methanol, 295.65 K): 0.0199 | solubility (mole fraction) (in methanol, 298.15 K): 0.0209 | solubility (mole fraction) (in methanol, 300.65 K): 0.0219 | solubility (mole fraction) (in methanol, 303.15 K): 0.023 | solubility (mole fraction) (in methanol, 305.65 K): 0.024 | solubility (mole fraction) (in methanol, 308.15 K): 0.0252 | solubility (mole fraction) (in methanol, 310.65 K): 0.0264 | solubility (mole fraction) (in methanol, 313.15 K): 0.0276 | solubility (mole fraction) (in methanol, 315.65 K): 0.0289 | solubility (mole fraction) (in methanol, 318.15 K): 0.0302 | solubility (mole fraction) (in n-propanol, 283.15 K): 0.0136 | solubility (mole fraction) (in n-propanol, 285.65 K): 0.0142 | solubility (mole fraction) (in n-propanol, 288.15 K): 0.0148 | solubility (mole fraction) (in n-propanol, 290.65 K): 0.0154 | solubility (mole fraction) (in n-propanol, 293.15 K): 0.016 | solubility (mole fraction) (in n-propanol, 295.65 K): 0.0167 | solubility (mole fraction) (in n-propanol, 298.15 K): 0.0174 | solubility (mole fraction) (in n-propanol, 300.65 K): 0.0181 | solubility (mole fraction) (in n-propanol, 303.15 K): 0.0188 | solubility (mole fraction) (in n-propanol, 305.65 K): 0.0196 | solubility (mole fraction) (in n-propanol, 308.15 K): 0.0204 | solubility (mole fraction) (in n-propanol, 310.65 K): 0.0213 | solubility (mole fraction) (in n-propanol, 313.15 K): 0.0221 | solubility (mole fraction) (in n-propanol, 315.65 K): 0.023 | solubility (mole fraction) (in n-propanol, 318.15 K): 0.0239 | solubility (mole fraction) (in toluene, 283.15 K): 2.5e-05 | solubility (mole fraction) (in toluene, 285.65 K): 2.85e-05 | solubility (mole fraction) (in toluene, 288.15 K): 3.35e-05 | solubility (mole fraction) (in toluene, 290.65 K): 3.84e-05 | solubility (mole fraction) (in toluene, 293.15 K): 4.45e-05 | solubility (mole fraction) (in toluene, 295.65 K): 5.09e-05 | solubility (mole fraction) (in toluene, 298.15 K): 5.84e-05 | solubility (mole fraction) (in toluene, 300.65 K): 6.64e-05 | solubility (mole fraction) (in toluene, 303.15 K): 7.62e-05 | solubility (mole fraction) (in toluene, 305.65 K): 8.68e-05 | solubility (mole fraction) (in toluene, 308.15 K): 9.91e-05 | solubility (mole fraction) (in toluene, 310.65 K): 0.000113 | solubility (mole fraction) (in toluene, 313.15 K): 0.000129 | solubility (mole fraction) (in toluene, 315.65 K): 0.000146 | solubility (mole fraction) (in toluene, 318.15 K): 0.000165
